{"source": "paper PMC10792010", "about": "“Analysis of vitamin D receptor binding affinities of enzymatically synthesized triterpenes including ambrein and unnatural onoceroids” (Scientific Reports, 2024)", "key": {"[1]": {"molecular_target": "T1, human VDR (Homo sapiens, UniProt P11473)", "T1 construct": "made in house; host or cells: E. coli (cell lysate used)", "T1 sequence (P11473 127-423 limits assumed)": "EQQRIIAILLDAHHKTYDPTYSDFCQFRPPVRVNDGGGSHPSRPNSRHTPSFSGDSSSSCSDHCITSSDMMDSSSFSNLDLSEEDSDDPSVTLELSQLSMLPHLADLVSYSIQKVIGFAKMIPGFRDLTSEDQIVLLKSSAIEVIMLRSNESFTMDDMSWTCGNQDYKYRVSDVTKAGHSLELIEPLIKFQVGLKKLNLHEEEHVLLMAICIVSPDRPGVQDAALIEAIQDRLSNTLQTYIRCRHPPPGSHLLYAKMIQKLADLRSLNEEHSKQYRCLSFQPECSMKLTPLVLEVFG", "assay": "VDR binding affinity, split-luciferase vitamin D biosensor", "conditions": "for Relative binding affinity: normalized to that of 1; for VDR binding affinity (in words): comparison between compounds, Fig. 3a", "method": "The binding affinity of each compound for the human VDR was evaluated as described previously[10],[19]. In brief, 49 μL of cell lysate derived from recombinant E. coli expressing split-luciferase vitamin D biosensor protein was added to individual wells of a 96-well plate. Next, 1 μL of ethanol solution of each compound at appropriate concentrations was added to each well and incubated for 30 min at 25 °C. Subsequently, 50 μL of the Luciferin solution containing 20 mM of MgSO4, 2 mM of D-luciferin, and 4 mM of adenosine triphosphate in 25 mM Tris–HCl (pH 7.4) was introduced into each well and incubated for 30 min at 25 °C. The luminescence (photon counts) was measured using a luminometer (Infinite 200 Pro 96-microplate luminometer, Tecan, Switzerland). […] X values were calculated using the following equation: X=10^logA/B×50-C/D-C+logB.\nIn this equation, A and B correspond to concentrations near 50% of the maximum relative light intensity. C and D represent the relative light intensity (%) at concentrations B and A, respectively."}, "[2]": {"system": "RAW264.7 cells", "assay": "Osteoclastic differentiation-promoting activity (TRAP-positive multinucleated osteoclasts)", "format": "cell-based", "conditions": "sRANKL 100 ng/mL, 4 days; relative to 50 μM 1, Fig. 4", "method": "RAW264.7 cells were used as pre-osteoclastic cells. Cells were cultured in α-MEM medium containing 10% fetal bovine serum, 2 mM L-glutamine, 100 U/mL penicillin, and 100 μg/mL streptomycin. Osteoclastic differentiation was induced following treatment with 100 ng/mL sRANKL (Oriental Yeast, Japan), and each sample was added to the medium and incubated for 4 days with 5% CO2 at 37 °C. Cells were fixed in 10% glutaraldehyde for 15 min at 37 °C and subsequently incubated for 10 min at 37 °C in tartrate-resistant acid phosphatase (TRAP) buffer, containing 0.1 M sodium acetate, 0.1 M acetic acid, 10 mg/mL naphthol AS-MX phosphate, 0.1% Triton X-100, 0.3 M potassium tartrate, and 0.3 mg/mL Fast Red Violet LB Salt. TRAP-positive dark-red cells with more than three nuclei were manually counted under a light microscope (20× objective) as multinucleated osteoclasts. Y-27632[22] was used as a positive control."}, "[3]": {"conditions": "split-luciferase biosensor lysate, 25 °C, mean ± SD of at least triplicate determinations, read-out: Concentration at 50% maximum light intensity"}}, "note": "“Also recorded” adds a separate entry of the source. Like-named read-outs stand apart in the source and are kept apart here."}
{"compound": "C=C1CCC(O)CC1=CC=C1CCCC2(C)C1CCC2C(C)CCCC(C)(C)O", "note": "(stereo not shown) [VD-II, 25-hydroxyvitamin D3, reference compound]", "values": [{"measurement": "Relative binding affinity", "setting": "[1]", "value": 1510}, {"measurement": "EC50", "setting": "[1]; [3]", "value": "0.074 ± 0.015", "unit": "µM"}]}
{"compound": "C=C1CCCC(C)(C)[C@@H]1CC/C(C)=C/CC[C@@H]1[C@@]2(C)CCCC(C)(C)[C@@H]2CC[C@@]1(C)O", "note": "[compound 1, ambrein]", "values": [{"measurement": "EC50", "setting": "[1]; Fig. 2b, Table S1, read-out: EC50 value (VDR binding affinity)", "value": "112 ± 29", "unit": "µM"}, {"measurement": "Relative binding affinity", "setting": "[1]", "value": 1}]}
{"compound": "CC(C)=CCC/C(C)=C/CC/C(C)=C/CC[C@@H]1[C@@]2(C)CCCC(C)(C)[C@@H]2CC[C@@]1(C)O", "note": "[compound 3]", "values": [{"measurement": "Relative binding affinity", "setting": "[1]", "value": 0.88}, {"measurement": "EC50", "setting": "[1]; [3]", "value": "128 ± 38", "unit": "µM"}, {"measurement": "osteoclastic differentiation-promoting activity (in words)", "setting": "[2]", "value": "no activity"}]}
{"compound": "C=C1CCCC(C)(C)C1CC/C(C)=C/CC/C=C(\\C)CC/C=C(\\C)CCC=C(C)C", "note": "(stereo not shown) [compound 4]", "values": [{"measurement": "relative intensity at a concentration of 100 μM", "setting": "[1]; 100 μM, relative light intensity compared to control (1% ethanol)", "value": "0.82 ± 0.07"}, {"measurement": "VDR binding affinity (in words)", "setting": "[1]", "value": "did not bind to the VDR; also recorded: very low VDR binding affinity"}]}
{"compound": "C=C1CC[C@H]2C(C)(C)CCC[C@]2(C)[C@H]1CC[C@@H]1[C@@]2(C)CCCC(C)(C)[C@@H]2CC[C@@]1(C)O", "note": "[compound 6]", "values": [{"measurement": "VDR binding affinity (in words)", "setting": "[1]", "value": "tenfold higher than that of 1"}, {"measurement": "Relative binding affinity", "setting": "[1]", "value": 10}, {"measurement": "EC50", "setting": "[1]; [3]", "value": "11.1 ± 1.5", "unit": "µM"}, {"measurement": "osteoclastic differentiation-promoting activity (in words)", "setting": "[2]", "value": "not comparable to that of 1"}]}
{"compound": "C/C(=C\\CC[C@@H]1[C@@]2(C)CCCC(C)(C)[C@@H]2CC[C@@]1(C)O)CC[C@H]1C(C)(C)CCC[C@]1(C)O", "note": "[compound 10]", "values": [{"measurement": "Relative binding affinity", "setting": "[1]", "value": 4.6}, {"measurement": "EC50", "setting": "[1]; [3]", "value": "24.6 ± 8.2", "unit": "µM"}]}
{"compound": "CC1=CC[C@H]2C(C)(C)CCC[C@]2(C)[C@H]1CC[C@@H]1[C@@]2(C)CCCC(C)(C)[C@@H]2CC[C@@]1(C)O", "note": "[compound 11]", "values": [{"measurement": "VDR binding affinity (in words)", "setting": "[1]", "value": "higher affinity than 10 and 15"}, {"measurement": "Relative binding affinity", "setting": "[1]", "value": 8.9}, {"measurement": "EC50", "setting": "[1]; [3]", "value": "12.6 ± 2.1", "unit": "µM"}]}
{"compound": "C=C1CCCC(C)(C)[C@@H]1CC/C(C)=C/CC[C@H]1C(=C)CC[C@H]2C(C)(C)CCC[C@]12C", "note": "[compound 13]", "values": [{"measurement": "VDR binding affinity (in words)", "setting": "[1]", "value": "higher affinity than 10 and 15"}, {"measurement": "Relative binding affinity", "setting": "[1]", "value": 7.0}, {"measurement": "EC50", "setting": "[1]; [3]", "value": "16 ± 2.2", "unit": "µM"}]}
{"compound": "C=C1CC[C@H]2C(C)(C)[C@@H](O)CC[C@]2(C)[C@H]1CC[C@@H]1[C@@]2(C)CCCC(C)(C)[C@@H]2CC[C@@]1(C)O", "note": "[compound 14]", "values": [{"measurement": "VDR binding affinity (in words)", "setting": "[1]", "value": "higher affinity than 10 and 15"}, {"measurement": "EC50", "setting": "[1]; [3]", "value": "13.9 ± 2.5", "unit": "µM"}]}
{"compound": "C=C1CC[C@H](O)C(C)(C)[C@@H]1CC/C(C)=C/CC[C@@H]1[C@@]2(C)CCCC(C)(C)[C@@H]2CC[C@@]1(C)O", "note": "[compound 15]", "values": [{"measurement": "Relative binding affinity", "setting": "[1]", "value": 2.5}, {"measurement": "EC50", "setting": "[1]; [3]", "value": "45.2 ± 17.1", "unit": "µM"}]}
